Assay results: US20260242419A1, “A CYCLIC PEPTIDE FOR TRAPPING INTERLEUKIN-1 BETA” (Merck Sharp & Dohme LLC, priority 2023, published 2026)
Starred links: 1 amine or outer side, 2 acyl side, 3 side chain; linkers in the order of their positions; H or OH if unused. Non-standard residues stand in square brackets, D forms with d. Residues, ends and D or L forms follow the SMILES beside them. dPro(4R-(4-pyridylmethyl)) = O=C(O)[C@H]1C[C@@H](Cc2ccncc2)CN1; Trp(βS-Me,4-F) = C[C@@H](c1c[nH]c2cccc(F)c12)[C@H](N)C(=O)O; X33 = O=C([C@H]1[C@@H](Cc2ccc(-c3ccncc3)cc2)CCN1[*:1])[*:2]; Bip(4'-COOH) = N[C@@H](Cc1ccc(-c2ccc(C(=O)O)cc2)cc1)C(=O)O; Ala(1-bicyclo(1.1.1)pentyl) = N[C@@H](CC12CC(C1)C2)C(=O)O; dPro(4R-Bzl(4-F)) = O=C(O)[C@H]1C[C@@H](Cc2ccc(F)cc2)CN1; dPro(3S-(4-F-Bn)) = O=C(O)[C@@H]1NCC[C@@H]1Cc1ccc(F)cc1; X4 = O=C([C@H]1[C@@H](Cc2ccncc2)CCN1[*:1])[*:2]; Ala(morpholin-4-yl) = N[C@@H](CN1CCOCC1)C(=O)O; Ala(pyrimidin-5-yl) = N[C@@H](Cc1cncnc1)C(=O)O; Phe(4-COOH) = N[C@@H](Cc1ccc(C(=O)O)cc1)C(=O)O; dαMeDab = C[C@](CCN[*:3])(N[*:1])C(=O)[*:2]; Bip = N[C@@H](Cc1ccc(-c2ccccc2)cc1)C(=O)O; Pro(cis-4-F) = O=C(O)[C@@H]1C[C@H](F)CN1; X6 = O=C([C@H](Cc1ccncn1)N[*:1])[*:2]; AEF = NCCOc1ccc(C[C@H](N)C(=O)O)cc1; d(αMeD) = C[C@@](N)(CC(=O)O)C(=O)O; 3Pal = N[C@@H](Cc1cccnc1)C(=O)O; 4Pal = N[C@@H](Cc1ccncc1)C(=O)O; d(αMeS) = C[C@@](N)(CO)C(=O)O; αMeK = C[C@](N)(CCCCN)C(=O)O; Orn = NCCC[C@H](N)C(=O)O; Dab = NCC[C@H](N)C(=O)O; Dap = NC[C@H](N)C(=O)O; Aib = CC(C)(N)C(=O)O; Sar = CNCC(=O)O

What follows are compounds tested against T1, IL-1β (Homo sapiens, UniProt P01584) (assay: IL-6 assay in MRC5 cells: inhibition of IL-1β induced IL-6 secretion (AlphaLISA)). Details: inhibition of IL-1β induced IL-6 secretion in MRC5 cells; compound pre-incubated 1 hour with recombinant human IL-1β; read-out: MRC5 IC50.
T1 construct: purchased BioLegend 579404
T1 sequence (P01584 117-269): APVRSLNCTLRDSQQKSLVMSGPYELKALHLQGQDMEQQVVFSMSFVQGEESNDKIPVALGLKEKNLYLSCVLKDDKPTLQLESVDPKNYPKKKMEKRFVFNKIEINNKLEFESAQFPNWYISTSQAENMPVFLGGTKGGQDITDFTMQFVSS
Assay type: cell-based
In short: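 Compound was pre-incubated 1 h at ambient temperature with recombinant human IL-1β at 2λ EC80 before adding human lung fibroblast MRC5 cells (3000/well) in EMEM with 0.025% BSA. After overnight culture at 37 °C, 5% CO2, secreted IL-6 in conditioned medium was measured by AlphaLISA; IC50 from 4-parameter logistic fits.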

IC50 [nM]	Structure (SMILES)
0.015	C[C@@H](c1c[nH]c2cccc(F)c12)[C@@H]1NC(=O)[C@@H]2C[C@H](F)CN2C(=O)CNC(=O)[C@H](Cc2ccc(C(=O)O)cc2)NC(=O)[C@H](CC23CC(C2)C3)NC(=O)[C@H](Cc2ccc(-c3ccc(C(=O)O)cc3)cc2)NC(=O)[C@H]2[C@@H](Cc3ccncc3)CCN2C(=O)CNC(=O)[C@H](CCN)NC(=O)[C@H](CCC(N)=O)NC(=O)[C@H](Cc2ccncn2)NC(=O)[C@@](C)(CC(=O)O)NC(=O)[C@H](Cc2c[nH]c3ccccc23)NC(=O)[C@H](CO)NC(=O)C(C)(C)NC1=O [Example 284] (cyclo([Bip(4'-COOH)][Ala(1-bicyclo(1.1.1)pentyl)][Phe(4-COOH)]G[Pro(cis-4-F)][Trp(βS-Me,4-F)][Aib]SW[d(αMeD)][X6]Q[Dab]G[X4]))

Same assay, conditions: inhibition of IL-1β induced IL-6 secretion in MRC5 cells; read-out: MRC5 IC50

Structure (SMILES)	IC50 [nM]
C[C@@H](c1c[nH]c2cccc(F)c12)[C@@H]1NC(=O)[C@@H]2C[C@H](F)CN2C(=O)CNC(=O)[C@H](Cc2ccc(C(=O)O)cc2)NC(=O)[C@H](Cc2ccncc2)NC(=O)[C@H](Cc2ccc(-c3ccc(C(=O)O)cc3)cc2)NC(=O)[C@H]2C[C@@H](Cc3ccncc3)CN2C(=O)CNC(=O)[C@H](CN)NC(=O)[C@H](CCC(N)=O)NC(=O)[C@H](Cc2ccncc2)NC(=O)C(C)(C)NC(=O)[C@H](Cc2c[nH]c3ccccc23)NC(=O)[C@H](CCC(=O)O)NC(=O)C(C)(C)NC1=O [Example 47] (cyclo([Bip(4'-COOH)][4Pal][Phe(4-COOH)]G[Pro(cis-4-F)][Trp(βS-Me,4-F)][Aib]EW[Aib][4Pal]Q[Dap]G[dPro(4R-(4-pyridylmethyl))]))	0.029
C[C@@H](c1c[nH]c2cccc(F)c12)[C@@H]1NC(=O)[C@@H]2C[C@H](F)CN2C(=O)CNC(=O)[C@H](Cc2ccc(C(=O)O)cc2)NC(=O)[C@H](CC23CC(C2)C3)NC(=O)[C@H](Cc2ccc(-c3ccc(C(=O)O)cc3)cc2)NC(=O)[C@H]2C[C@@H](Cc3ccncc3)CN2C(=O)CNC(=O)[C@H](CCCN)NC(=O)[C@H](CCC(N)=O)NC(=O)[C@H](Cc2cncnc2)NC(=O)C(C)(C)NC(=O)[C@H](Cc2c[nH]c3ccccc23)NC(=O)[C@H](CO)NC(=O)C(C)(C)NC1=O [Example 109] (cyclo([Bip(4'-COOH)][Ala(1-bicyclo(1.1.1)pentyl)][Phe(4-COOH)]G[Pro(cis-4-F)][Trp(βS-Me,4-F)][Aib]SW[Aib][Ala(pyrimidin-5-yl)]Q[Orn]G[dPro(4R-(4-pyridylmethyl))]))	0.036
C[C@@H](c1c[nH]c2cccc(F)c12)[C@@H]1NC(=O)[C@@H]2C[C@H](F)CN2C(=O)CNC(=O)[C@H](Cc2ccc(C(=O)O)cc2)NC(=O)[C@H](CC23CC(C2)C3)NC(=O)[C@H](Cc2ccc(-c3ccc(C(=O)O)cc3)cc2)NC(=O)[C@H]2C[C@@H](Cc3ccc(F)cc3)CN2C(=O)CNC(=O)[C@H](CCN)NC(=O)[C@H](CCC(N)=O)NC(=O)[C@H](CN2CCOCC2)NC(=O)[C@](C)(CCCCN)NC(=O)[C@H](Cc2c[nH]c3ccccc23)NC(=O)[C@H](CO)NC(=O)C(C)(C)NC1=O [Example 174] (cyclo([Bip(4'-COOH)][Ala(1-bicyclo(1.1.1)pentyl)][Phe(4-COOH)]G[Pro(cis-4-F)][Trp(βS-Me,4-F)][Aib]SW[αMeK][Ala(morpholin-4-yl)]Q[Dab]G[dPro(4R-Bzl(4-F))]))	0.025
C[C@@H](c1c[nH]c2cccc(F)c12)[C@@H]1NC(=O)[C@@H]2C[C@H](F)CN2C(=O)CNC(=O)[C@H](Cc2ccc(C(=O)O)cc2)NC(=O)[C@H](Cc2ccncc2)NC(=O)[C@H](Cc2ccc(-c3ccc(C(=O)O)cc3)cc2)NC(=O)[C@H]2C[C@@H](Cc3ccc(F)cc3)CN2C(=O)CNC(=O)[C@H](CCN)NC(=O)[C@H](CCC(N)=O)NC(=O)[C@H](CCCNC(=N)N)NC(=O)C(C)(C)NC(=O)[C@H](Cc2c[nH]c3ccccc23)NC(=O)[C@H](CCC(=O)O)NC(=O)C(C)(C)NC1=O [Example 33] (cyclo([Bip(4'-COOH)][4Pal][Phe(4-COOH)]G[Pro(cis-4-F)][Trp(βS-Me,4-F)][Aib]EW[Aib]RQ[Dab]G[dPro(4R-Bzl(4-F))]))	0.033
C[C@@H](c1c[nH]c2cccc(F)c12)[C@@H]1NC(=O)[C@@H]2C[C@H](F)CN2C(=O)CNC(=O)[C@H](Cc2ccc(C(=O)O)cc2)NC(=O)[C@H](Cc2ccncc2)NC(=O)[C@H](Cc2ccc(-c3ccc(C(=O)O)cc3)cc2)NC(=O)[C@H]2C[C@@H](Cc3ccncc3)CN2C(=O)CN(C)C(=O)[C@H](CCN)NC(=O)[C@H](CCC(N)=O)NC(=O)[C@H](Cc2cncnc2)NC(=O)[C@@](C)(CO)NC(=O)[C@H](Cc2c[nH]c3ccccc23)NC(=O)[C@H](CO)NC(=O)C(C)(C)NC1=O [Example 206] (cyclo([Bip(4'-COOH)][4Pal][Phe(4-COOH)]G[Pro(cis-4-F)][Trp(βS-Me,4-F)][Aib]SW[d(αMeS)][Ala(pyrimidin-5-yl)]Q[Dab][Sar][dPro(4R-(4-pyridylmethyl))]))	0.022
C[C@@H](c1c[nH]c2cccc(F)c12)[C@@H]1NC(=O)[C@@H]2C[C@H](F)CN2C(=O)CNC(=O)[C@H](Cc2ccc(C(=O)O)cc2)NC(=O)[C@H](Cc2ccncc2)NC(=O)[C@H](Cc2ccc(-c3ccc(C(=O)O)cc3)cc2)NC(=O)[C@H]2[C@@H](Cc3ccc(-c4ccncc4)cc3)CCN2C(=O)CNC(=O)[C@H](CCN)NC(=O)[C@H](CCC(N)=O)NC(=O)[C@H](Cc2cncnc2)NC(=O)C(C)(C)NC(=O)[C@H](Cc2c[nH]c3ccccc23)NC(=O)[C@H](CCC(=O)O)NC(=O)C(C)(C)NC1=O [Example 55] (cyclo([Bip(4'-COOH)][4Pal][Phe(4-COOH)]G[Pro(cis-4-F)][Trp(βS-Me,4-F)][Aib]EW[Aib][Ala(pyrimidin-5-yl)]Q[Dab]G[X33]))	0.024
C[C@@H](c1c[nH]c2cccc(F)c12)[C@@H]1NC(=O)[C@@H]2C[C@H](F)CN2C(=O)CNC(=O)[C@H](Cc2ccc(C(=O)O)cc2)NC(=O)[C@H](Cc2ccncc2)NC(=O)[C@H](Cc2ccc(-c3ccc(C(=O)O)cc3)cc2)NC(=O)[C@H]2C[C@@H](Cc3ccc(F)cc3)CN2C(=O)CNC(=O)[C@H](CCN)NC(=O)[C@H](CCC(N)=O)NC(=O)[C@H](Cc2cncnc2)NC(=O)C(C)(C)NC(=O)[C@H](Cc2c[nH]c3ccccc23)NC(=O)[C@H](CO)NC(=O)[C@@](C)(CCN)NC1=O [Example 131] (cyclo([Bip(4'-COOH)][4Pal][Phe(4-COOH)]G[Pro(cis-4-F)][Trp(βS-Me,4-F)][dαMeDab]SW[Aib][Ala(pyrimidin-5-yl)]Q[Dab]G[dPro(4R-Bzl(4-F))]))	0.019
C[C@@H](c1c[nH]c2cccc(F)c12)[C@@H]1NC(=O)[C@@H]2C[C@H](F)CN2C(=O)CNC(=O)[C@H](Cc2ccc(C(=O)O)cc2)NC(=O)[C@H](Cc2ccncc2)NC(=O)[C@H](Cc2ccc(-c3ccc(C(=O)O)cc3)cc2)NC(=O)[C@H]2C[C@@H](Cc3ccc(F)cc3)CN2C(=O)CNC(=O)[C@H](CO)NC(=O)[C@H](CCC(N)=O)NC(=O)[C@H](CN2CCOCC2)NC(=O)C(C)(C)NC(=O)[C@H](Cc2c[nH]c3ccccc23)NC(=O)[C@H](CCC(=O)O)NC(=O)C(C)(C)NC1=O [Example 125] (cyclo([4Pal][Phe(4-COOH)]G[Pro(cis-4-F)][Trp(βS-Me,4-F)][Aib]EW[Aib][Ala(morpholin-4-yl)]QSG[dPro(4R-Bzl(4-F))][Bip(4'-COOH)]))	0.041

The remaining lines, values ahead:

IC50 [nM]	Structure (SMILES)
0.012	C[C@@H](c1c[nH]c2cccc(F)c12)[C@@H]1NC(=O)[C@@H]2C[C@H](F)CN2C(=O)CNC(=O)[C@H](Cc2ccc(C(=O)O)cc2)NC(=O)[C@H](Cc2ccncc2)NC(=O)[C@H](Cc2ccc(-c3ccc(C(=O)O)cc3)cc2)NC(=O)[C@H]2C[C@@H](Cc3ccc(F)cc3)CN2C(=O)CNC(=O)[C@H](CCN)NC(=O)[C@H](CCC(N)=O)NC(=O)[C@H](Cc2cccnc2)NC(=O)[C@@](C)(CC(=O)O)NC(=O)[C@H](Cc2c[nH]c3ccccc23)NC(=O)[C@H](CO)NC(=O)C(C)(C)NC1=O [Example 323] (cyclo([Bip(4'-COOH)][4Pal][Phe(4-COOH)]G[Pro(cis-4-F)][Trp(βS-Me,4-F)][Aib]SW[d(αMeD)][3Pal]Q[Dab]G[dPro(4R-Bzl(4-F))]))
0.017	C[C@@H](c1c[nH]c2cccc(F)c12)[C@@H]1NC(=O)[C@@H]2C[C@H](F)CN2C(=O)CNC(=O)[C@H](Cc2ccc(C(=O)O)cc2)NC(=O)[C@H](Cc2ccncc2)NC(=O)[C@H](Cc2ccc(-c3ccc(C(=O)O)cc3)cc2)NC(=O)[C@H]2[C@@H](Cc3ccc(F)cc3)CCN2C(=O)CNC(=O)[C@H](CCN)NC(=O)[C@H](CCC(N)=O)NC(=O)[C@H](Cc2ccncn2)NC(=O)C(C)(C)NC(=O)[C@H](Cc2c[nH]c3ccccc23)NC(=O)[C@H](CCC(=O)O)NC(=O)C(C)(C)NC1=O [Example 312] (cyclo([Bip(4'-COOH)][4Pal][Phe(4-COOH)]G[Pro(cis-4-F)][Trp(βS-Me,4-F)][Aib]EW[Aib][X6]Q[Dab]G[dPro(3S-(4-F-Bn))]))
0.022	CC(=O)NCCOc1ccc(C[C@@H]2NC(=O)[C@H]3C[C@@H](Cc4ccncc4)CN3C(=O)CNC(=O)[C@H](CCN)NC(=O)[C@H](CCC(N)=O)NC(=O)[C@H](Cc3cncnc3)NC(=O)C(C)(C)NC(=O)[C@H](Cc3c[nH]c4ccccc34)NC(=O)[C@H](CO)NC(=O)C(C)(C)NC(=O)[C@H]([C@@H](C)c3c[nH]c4cccc(F)c34)NC(=O)[C@@H]3C[C@H](F)CN3C(=O)CNC(=O)[C@H](Cc3ccc(C(=O)O)cc3)NC(=O)[C@H](Cc3ccncc3)NC2=O)cc1 [Example 368] (cyclo([AEF](Ac)[4Pal][Phe(4-COOH)]G[Pro(cis-4-F)][Trp(βS-Me,4-F)][Aib]SW[Aib][Ala(pyrimidin-5-yl)]Q[Dab]G[dPro(4R-(4-pyridylmethyl))]))
0.021	C[C@@H](c1c[nH]c2cccc(F)c12)[C@@H]1NC(=O)[C@@H]2C[C@H](F)CN2C(=O)CNC(=O)[C@H](Cc2ccc(C(=O)O)cc2)NC(=O)[C@H](Cc2ccncc2)NC(=O)[C@H](Cc2ccc(-c3ccccc3)cc2)NC(=O)[C@H]2C[C@@H](Cc3ccncc3)CN2C(=O)CNC(=O)[C@H](CCN)NC(=O)[C@H](CCC(N)=O)NC(=O)[C@H](Cc2cncnc2)NC(=O)[C@@](C)(CO)NC(=O)[C@H](Cc2c[nH]c3ccccc23)NC(=O)[C@H](CO)NC(=O)C(C)(C)NC1=O [Example 340] (cyclo([Bip][4Pal][Phe(4-COOH)]G[Pro(cis-4-F)][Trp(βS-Me,4-F)][Aib]SW[d(αMeS)][Ala(pyrimidin-5-yl)]Q[Dab]G[dPro(4R-(4-pyridylmethyl))]))
